Source: patent publication US4244947A, “Carba decapeptide derivatives of [TYR^6 ]-somatostatin” (Ayerst McKenna and Harrison Inc., priority 1979, dated 1981)

What was measured:
Format in all cases: in vivo, rat
[1] = test system: glucose stimulated insulin secretion; experiment: glucose stimulated insulin secretion in anaesthetized fasted rats (plasma IRI); conditions: for IRI/ml, level observed at 30 min: absolute level, mean ± SEM
Procedure: (§1) The in vivo activity of the peptide of formula I is established by subjecting the peptide of formula I, in which X is (CH2)2 as a representative peptide of this invention, to the following standard test procedures.
(§2) Male Sprague Dawley rats (200±10 gm) body weight are used throughout these studies. They are maintained on an ad libitum diet of Purina Lab Chow and tap water until 24 hr before the studies are carried out. In the 24 hr period prior to use, the animals are fasted, but have unlimited access to tap water. All studies are conducted on sodium pentobarbital, sold under the trademark Nembutal, (Abbott Labs, Montreal), 60 mg/kg, ip, anaesthetized rats.
In studies where only insulin secretion is stimulated, glucose in 0.9% aqueous sodium chloride (British Drug House, Poole, England) is infused into an exposed jugular vein (100 mg/100 gm, in a volume of 2.0 ml for 30 min).
(§3) The peptide of formula I or somatostatin at various concentrations is infused simultaneously with the arginine or glucose stimulus, with the aid of a butterfly infusion set (23 guage) into the test animals. The effect of the vehicle on the release of the hormones is determined by infusing the saline diluent into selected rats.
(§4) The blood samples are discharged into chilled (4° C.) glass test tubes, containing aprotinin, sold under the trademark Trasylol, (Boehringer Ingelheim, Montreal), 500 KIU/ml whole blood, and plasma samples were collected after centrifugation (4° C., 3000 rpm for 30 min). The plasma samples were stored at -20° until assayed for immuno reactive glucagon (IRG) using antiserum 30 K and for immuno reactive insulin (IRI) by the methods described by W. Lippmann and M. Kobric, Horm. Metab. Res., 10, 280 (1978).
(§5) All results are expressed as the mean ±SEM of the response. Insulin and glucagon responses obtained in the arginine treated groups are derived by subtracting the basal hormone level from the level at 30 min, and are expressed in Tables I, II and III as ΔIRG (pg/ml) and ΔIRI/(μU/ml), for glucagon and insulin, respectively. Insulin results obtained from the glucose treated animals are in absolute hormone level at the termination of the infusion.
(§6) Wilcoxon's two sample test for unpaired observations, as described in "Statistical Methods", G. W. Snedecor and W. G. Cochran, ed., sixth edition, the Iowa State University Press, Ames, Iowa, 1973, pp 130 and 131, is used to determine the significance of the peptide+arginine or peptide+glucose versus the responses due to arginine or glucose alone. In selected instances, parallel dose-response line assay by analysis of variance, as described in "Statistical Method in Biological Assay", D. J. Finney, ed., second edition, Hafner Publishing Company, New York, 1964, is used to determine the relative potency of the 2 peptides in the bioassays. A p≤0.05 is deemed to be significant.

[2] = test system: arginine stimulated glucagon secretion; experiment: arginine stimulated glucagon secretion in anaesthetized fasted rats (plasma IRG); conditions: for ΔIRG, mean incremental change of plasma IRG from level at 0 min to level at 30 min: mean ± SEM
Procedure: as §1, §2
(§7) In studies where both insulin and glucagon secretion are investigated, arginine (arginine-HCl in 0.9% aqueous sodium chloride, pH 7.4, 200 mg/100 gm rat, Nutritional Biochemicals, Cleveland) is infused into an exposed jugular vein (2.0 ml/30 min).
as §3, §4, §5, §6

[3] = test system: arginine stimulated insulin secretion; experiment: arginine stimulated insulin secretion in anaesthetized fasted rats (plasma IRI); conditions: for ΔIRI, mean incremental change of IRI from basal: infused with arginine, 30 min, mean ± SEM
Procedure: as §1, §2, §7, §3, §4, §5, §6

C[C@H](N)C(=O)NCC(=O)N[C@H]1CSSC[C@@H](C(=O)O)NC(=O)[C@H](CO)NC(=O)[C@H]([C@@H](C)O)NC(=O)[C@H](Cc2ccccc2)NC(=O)[C@H]([C@@H](C)O)NC(=O)[C@H](CCCCN)NC(=O)[C@H](Cc2c[nH]c3ccccc23)NC(=O)[C@H](Cc2ccccc2)NC(=O)[C@H](Cc2ccccc2)NC(=O)[C@H](CC(N)=O)NC(=O)[C@H](CCCCN)NC1=O [somatostatin]
IRI/ml, level observed at 30 min ([1]; Study A, 10 μg peptide/100 gm rat infused for 30 min with glucose): 27.2 ± 4.7 μU/ml | IRI/ml, level observed at 30 min ([1]; Study A, 100 μg peptide/100 gm rat infused for 30 min with glucose): 12.3 ± 3.9 μU/ml | IRI/ml, level observed at 30 min ([1]; Study B, 10 μg peptide/100 gm rat infused for 30 min with glucose): 40.3 ± 7.7 μU/ml | IRI/ml, level observed at 30 min ([1]; Study B, 30 μg peptide/100 gm rat infused for 30 min with glucose): 17.0 ± 7.5 μU/ml | IRI/ml, level observed at 30 min ([1]; Study B, 100 μg peptide/100 gm rat infused for 30 min with glucose): 6.2 ± 1.9 μU/ml | relative potency in suppressing IRI secretion ([1]; glucose stimulated, summary of Table III): significantly more potent than the peptide of formula I in which X is (CH2)2 | ΔIRG, mean incremental change of plasma IRG from level at 0 min to level at 30 min ([2]; Study A, 0.3 μg peptide/100 gm rat infused for 30 min with arginine): 157.2 ± 35.9 pg/mL | ΔIRG, mean incremental change of plasma IRG from level at 0 min to level at 30 min ([2]; Study A, 1.0 μg peptide/100 gm rat infused for 30 min with arginine): 72.7 ± 19.0 pg/mL | ΔIRG, mean incremental change of plasma IRG from level at 0 min to level at 30 min ([2]; Study A, 3.0 μg peptide/100 gm rat infused for 30 min with arginine): 102.5 ± 25.8 pg/mL | ΔIRG, mean incremental change of plasma IRG from level at 0 min to level at 30 min ([2]; Study A, 30.0 μg peptide/100 gm rat infused for 30 min with arginine): 90.2 ± 38.4 pg/mL | ΔIRG, mean incremental change of plasma IRG from level at 0 min to level at 30 min ([2]; Study B, 0.03 μg peptide/100 gm rat infused for 30 min with arginine): 211.0 ± 23.1 pg/mL | ΔIRG, mean incremental change of plasma IRG from level at 0 min to level at 30 min ([2]; Study B, 0.3 μg peptide/100 gm rat infused for 30 min with arginine): 149.2 ± 29.9 pg/mL | ΔIRG, mean incremental change of plasma IRG from level at 0 min to level at 30 min ([2]; Study B, 3.0 μg peptide/100 gm rat infused for 30 min with arginine): 69.3 ± 22.2 pg/mL | ΔIRG, mean incremental change of plasma IRG from level at 0 min to level at 30 min ([2]; Study B, 30.0 μg peptide/100 gm rat infused for 30 min with arginine): 69.7 ± 8.4 pg/mL | suppression of IRG secretion, comparison ([2]; arginine stimulated, summary of Table II): suppresses the IRG secretion about equally | ΔIRI, mean incremental change of IRI from basal ([3]; Study A, 0.3 μg peptide/100 gm body weight rat): 73.8 ± 18.5 μU/ml | ΔIRI, mean incremental change of IRI from basal ([3]; Study A, 1.0 μg peptide/100 gm body weight rat): 43.0 ± 22.6 μU/ml | ΔIRI, mean incremental change of IRI from basal ([3]; Study A, 3.0 μg peptide/100 gm body weight rat): 40.0 ± 6.6 μU/ml | ΔIRI, mean incremental change of IRI from basal ([3]; Study A, 30.0 μg peptide/100 gm body weight rat): 23.2 ± 12.5 μU/ml | ΔIRI, mean incremental change of IRI from basal ([3]; Study B, 0.03 μg peptide/100 gm body weight rat): 88.3 ± 9.1 μU/ml | ΔIRI, mean incremental change of IRI from basal ([3]; Study B, 0.3 μg peptide/100 gm body weight rat): 76.8 ± 5.2 μU/ml | ΔIRI, mean incremental change of IRI from basal ([3]; Study B, 3.0 μg peptide/100 gm body weight rat): 32.2 ± 3.5 μU/ml | ΔIRI, mean incremental change of IRI from basal ([3]; Study B, 30.0 μg peptide/100 gm body weight rat): 35.5 ± 7.8 μU/ml | ΔIRI, mean incremental change of IRI from basal ([3]; Study C, 10.0 μg peptide/100 gm body weight rat): 52.8 ± 9.3 μU/ml | ΔIRI, mean incremental change of IRI from basal ([3]; Study C, 100.0 μg peptide/100 gm body weight rat): 25.5 ± 8.1 μU/ml | suppression of IRI, comparison of effective dose ([3]; arginine stimulated, summary of Table I): suppresses IRI at a lower dose than does the peptide of formula I in which X is (CH2)2
